Reference: patent US7119121B2, “3,3-diphenylpropylamines useful in therapy” (Pfizer Inc., priority 2003, dated 2006)
pKi: −log10 of the molar value.

Tests used:
[1] = molecular target: T1, muscarinic receptor subtype M4 (Homo sapiens, UniProt P08173); assay: In vitro muscarinic receptor binding assay ([3H]NMS competition, SPA); details: cloned human receptors in CHO cell membranes, [3H]N-methylscopolamine, average of four determinations
T1 construct: purchased Receptor Biology division of Perkin Elmer Life Sciences (Beltsville, Md.)
T1 sequence (P08173 1-479): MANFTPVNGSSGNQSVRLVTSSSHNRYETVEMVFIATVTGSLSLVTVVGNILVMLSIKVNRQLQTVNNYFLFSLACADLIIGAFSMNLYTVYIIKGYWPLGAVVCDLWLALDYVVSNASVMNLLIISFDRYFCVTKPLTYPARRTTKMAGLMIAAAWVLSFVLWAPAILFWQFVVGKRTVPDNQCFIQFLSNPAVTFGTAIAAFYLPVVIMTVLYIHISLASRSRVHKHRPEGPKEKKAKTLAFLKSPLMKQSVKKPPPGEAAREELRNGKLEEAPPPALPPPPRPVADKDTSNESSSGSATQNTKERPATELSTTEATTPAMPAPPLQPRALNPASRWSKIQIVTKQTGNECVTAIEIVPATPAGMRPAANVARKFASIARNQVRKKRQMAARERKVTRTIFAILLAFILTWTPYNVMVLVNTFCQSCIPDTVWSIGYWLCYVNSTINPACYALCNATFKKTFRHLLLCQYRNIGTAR
Protocol: (§1) Affinities of test compounds for muscarinic receptor subtypes M1–M4 were determined. Competition radioligand binding experiments employed 11 drug concentrations run in duplicate. [^3H]N-methylscopolamine (NMS) was used as an antagonist radioligand, at the concentration equal to its equilibrium dissociation constant (Kd) for each receptor subtype. […] Total binding was determined with phosphate buffered saline (PBS). Cloned human receptors permanently expressed in CHO cells were the source of all binding sites. Membranes were purchased from Receptor Biology division of Perkin Elmer Life Sciences (Beltsville, Md.). The assays were run in scintillation proximity assay (SPA) format. Binding mixtures were made in flexible, 96-well, Wallac Micro-Beta plates by the addition of 11 μl of drug dilution, 11 μl of radioligand, and 178 μl of membrane/SPA bead suspension (100 mg of WGA-coated SPA beads, incubated with 5–15 μg protein/plate in 10 ml PBS for 30 min at room temperature, followed by low-speed centrifugation and resuspension in 2 ml PBS). After sealing and incubation at room temperature for 1 hour the plates were counted in a Wallac Micro-Beta scintillation counter. IC50 values were estimated by fitting the data to a one-site competition model: Y=T/(1+10^log(x)−log(IC50)), where Y is the specific CPM's bound at concentration X, and T is the specific CPM's bound in the absence of competitor. Inhibition constants (Ki) were calculated using the Cheng-Prushoff equation (Cheng, Y; Prushoff, W H, Biochem Pharmacol 22: 3099–3108, 1973). Curve fitting and Ki calculations were carried out using GraphPad Prism, version 3.0 (San Diego, Calif.).
(§2) Results are the average of four separate determinations. In vitro Binding

[2] = molecular target: T2, muscarinic receptor subtype M2 (Homo sapiens, UniProt P08172); assay: as above; details: cloned human receptors in CHO cell membranes, [3H]N-methylscopolamine, average of four determinations
T2 construct: purchased Receptor Biology division of Perkin Elmer Life Sciences (Beltsville, Md.)
T2 sequence (P08172 1-466): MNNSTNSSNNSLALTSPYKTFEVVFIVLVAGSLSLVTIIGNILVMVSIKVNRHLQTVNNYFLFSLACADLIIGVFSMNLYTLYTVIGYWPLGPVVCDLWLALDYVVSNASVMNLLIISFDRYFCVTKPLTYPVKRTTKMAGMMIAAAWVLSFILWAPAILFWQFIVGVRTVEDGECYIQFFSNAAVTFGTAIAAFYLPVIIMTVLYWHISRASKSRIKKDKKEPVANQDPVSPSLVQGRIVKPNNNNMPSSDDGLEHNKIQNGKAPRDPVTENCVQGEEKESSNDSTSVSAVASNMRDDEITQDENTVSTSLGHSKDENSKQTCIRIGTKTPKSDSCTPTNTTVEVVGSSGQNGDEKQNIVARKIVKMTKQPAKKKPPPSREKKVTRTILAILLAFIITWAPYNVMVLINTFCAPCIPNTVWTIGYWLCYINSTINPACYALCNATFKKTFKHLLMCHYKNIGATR
Protocol: as §1, §2

[3] = molecular target: T3, muscarinic receptor subtype M3 (Homo sapiens, UniProt P20309); assay: as above; details: cloned human receptors in CHO cell membranes, [3H]N-methylscopolamine, average of four determinations
T3 construct: purchased Receptor Biology division of Perkin Elmer Life Sciences (Beltsville, Md.)
Protocol: as §1, §2

[4] = molecular target: T4, muscarinic receptor subtype M1 (Homo sapiens, UniProt P11229); assay: as above; details: cloned human receptors in CHO cell membranes, [3H]N-methylscopolamine, average of four determinations
T4 construct: purchased Receptor Biology division of Perkin Elmer Life Sciences (Beltsville, Md.)
T4 sequence (P11229 1-460): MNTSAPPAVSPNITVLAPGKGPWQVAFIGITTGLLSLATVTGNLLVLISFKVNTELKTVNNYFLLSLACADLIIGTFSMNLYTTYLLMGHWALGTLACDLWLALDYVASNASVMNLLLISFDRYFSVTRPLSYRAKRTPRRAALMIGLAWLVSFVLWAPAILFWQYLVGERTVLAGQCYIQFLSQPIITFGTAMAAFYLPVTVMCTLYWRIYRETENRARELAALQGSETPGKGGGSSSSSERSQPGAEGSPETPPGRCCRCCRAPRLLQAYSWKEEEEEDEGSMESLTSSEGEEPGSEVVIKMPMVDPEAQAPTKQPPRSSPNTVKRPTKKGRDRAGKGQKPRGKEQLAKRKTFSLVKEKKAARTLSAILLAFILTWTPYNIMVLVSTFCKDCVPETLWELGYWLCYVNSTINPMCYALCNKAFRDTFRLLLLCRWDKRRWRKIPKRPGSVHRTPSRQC
Protocol: as §1, §2

P450 CYP2D6 enzyme = P450 CYP2D6 enzyme (Homo sapiens, UniProt P10635); assay: Protection from CYP2D6 metabolism (microsome incubation, HPLC); type: in vitro ADME; details: approx. 10 μM [14C]-labeled compound, microsomes with CYP2D6 (20 pmol), 1 mM β-NADPH, pH 7.4, 37° C., 20 min
Protocol: [^14C]-labeled N,N-diisopropyl-3-(2-hydroxy-5-trifluoromethylphenyl)-3-phenylpropanamine is synthesized, following the general procedure of examples 1–9. Approximately 10 μM of the compound is incubated with microsomes containing P450 CYP2D6 enzyme (20 pmol) in 100 mM potassium phosphate buffer (pH 7.4) and 1 mM β-NADPH at 37° C. in a final volume of 250 μl for 20 min.
The incubations are analyzed for the parent drug and its metabolites by HPLC using standard procedures. The amount of each metabolite is calculated from the resulting radiochromatogram. The retention times of formed metabolites are compared with the retention times of synthesized reference standards, and the identity of the formed metabolites is further confirmed by electrospray ionization mass spectrometry.

T3 sequence (P20309 whole entry): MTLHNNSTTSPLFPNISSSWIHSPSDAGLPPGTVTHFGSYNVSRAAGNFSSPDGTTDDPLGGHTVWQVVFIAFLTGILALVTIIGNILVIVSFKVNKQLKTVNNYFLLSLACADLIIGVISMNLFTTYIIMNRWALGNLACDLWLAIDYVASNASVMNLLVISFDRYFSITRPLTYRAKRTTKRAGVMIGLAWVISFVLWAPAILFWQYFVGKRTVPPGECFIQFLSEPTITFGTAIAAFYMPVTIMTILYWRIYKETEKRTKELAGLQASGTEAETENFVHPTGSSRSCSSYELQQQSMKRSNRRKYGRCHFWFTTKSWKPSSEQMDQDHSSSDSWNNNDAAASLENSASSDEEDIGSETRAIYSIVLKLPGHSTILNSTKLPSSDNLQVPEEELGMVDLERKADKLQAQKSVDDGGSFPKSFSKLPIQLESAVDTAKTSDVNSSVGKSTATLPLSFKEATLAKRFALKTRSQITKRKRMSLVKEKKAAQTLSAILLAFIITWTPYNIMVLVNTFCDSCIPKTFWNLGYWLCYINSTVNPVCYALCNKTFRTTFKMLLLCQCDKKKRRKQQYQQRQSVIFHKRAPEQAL
P450 CYP2D6 enzyme, sequence (P10635 whole entry): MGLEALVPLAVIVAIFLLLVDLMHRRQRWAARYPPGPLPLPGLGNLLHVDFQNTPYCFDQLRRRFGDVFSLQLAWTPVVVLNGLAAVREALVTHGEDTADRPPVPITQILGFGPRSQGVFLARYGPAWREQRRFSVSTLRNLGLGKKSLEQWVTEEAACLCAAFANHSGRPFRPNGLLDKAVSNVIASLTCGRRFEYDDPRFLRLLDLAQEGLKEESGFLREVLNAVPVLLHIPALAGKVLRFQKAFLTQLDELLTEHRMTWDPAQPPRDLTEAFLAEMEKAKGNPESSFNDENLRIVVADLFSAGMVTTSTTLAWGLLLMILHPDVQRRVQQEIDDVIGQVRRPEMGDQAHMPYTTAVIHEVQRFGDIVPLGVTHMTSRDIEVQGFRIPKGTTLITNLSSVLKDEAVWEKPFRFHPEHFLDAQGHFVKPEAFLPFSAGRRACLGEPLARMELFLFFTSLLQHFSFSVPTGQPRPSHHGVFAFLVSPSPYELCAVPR

| SMILES | pKi [1] | pKi [2] | pKi [3] | pKi [4] | oxidation/hydroxylation by P450 CYP2D6 enzyme (P450 CYP2D6 enzyme) |
| --- | --- | --- | --- | --- | --- |
| CC(C)N(CCC(c1ccccc1)c1cc(C(F)(F)F)ccc1O)C(C)C (racemic) [N,N-Diisopropyl-3-(2-hydroxy-5-trifluoro-methylphenyl)-3-phenylpropanamine] | 8.22 | 8.08 | 7.80 | 8.41 | not readily hydroxylated at the 5-trifluoromethyl substituent |
| Cc1ccc(O)c([C@H](CCN(C(C)C)C(C)C)c2ccccc2)c1 [tolterodine, 2-[(1R)-3-(diisopropylamino)-1-phenylpropyl)-4-methylphenol, reference compound] | 9.19 | – | – | 9.10 | – |
